Test results taken from US10487058B2, “Cyclopropyl unsaturated quinoline compound used as leukotriene receptor antagonist and applications thereof” (Guangdong Moltech Pharma Co. Ltd, priority 2015, dated 2019).

Tests used:
KM mice = conditions: oral gavage three times in one day, observed 7 days
guinea pig asthma models = assay: Anti-asthmatic effect of CS-0090-1 on guinea pig asthma models (histamine/acetylcholine atomization); type: in vivo
[1] = tested on: histamine and acetylcholine induced asthma guinea pigs; assay: Anti-asthmatic effect of CS-0090-4 on histamine and acetylcholine induced asthma guinea pigs; type: in vivo, guinea pig
Method: 0.2 g choline and 0.01 g histamine were weighed and put into beakers respectively, and then respectively each beaker were added with 10 ml distilled water and blended to homogeneity.
The healthy guinea pigs with body weight of 180 to 220 g were taken and placed in a closed glass bell jar one by one firstly; after the guinea pigs became quiet, an atomization apparatus was started to spray an asthma-induced medical liquid (a solution of 2% acetylcholine chloride and 0.1% histamine phosphate mixed in equal volume) until the guinea pigs tumbled, then the pulverization was stopped, and the asthma latent period (time period from the beginning of pulverization to onset of asthma and dyspnea, till convulsions and tumble) was observed, and qualified animals having a asthma latent period ≤120 s were screened.
The qualified guinea pigs screened were randomly divided into four groups, which were a high-dosage group, a median-dosage group, a low-dosage group, and a positive control group. The guinea pigs in each group were subjected to oral gavage administration continuously for 7 days with a dosage of 1 ml/100 g. The induced asthma latent period was determined in 1 h after administration on the last day.

[2] = tested on: histamine and acetylcholine induced asthma guinea pigs; assay: Anti-asthmatic effect of CS-0090-2 on histamine and acetylcholine induced asthma guinea pigs; type: in vivo, guinea pig
[3] = 3 mg·kg^−1 group, self-control baseline

CC(C)(O)c1ccccc1CC[C@@H](SCC1(CC(=O)O)CC1)c1cccc(/C=C/c2ccc3ccc(Cl)cc3n2)c1 [Montelukast]
maximum dosage (KM mice): 2280 mg/kg
Induced asthma latent period before administration (guinea pig asthma models; [3]): 48.17 ± 4.62 s
Induced asthma latent period after administration (guinea pig asthma models; 3 mg·kg^−1 oral gavage once a day for 7 days, 1 h after last dose, capped at 6 min): 63.00 ± 7.13 s
Asthma latent period before administration [1, 3]: 48.17 ± 4.62
Asthma latent period after administration ([1]; 3 mg·kg^−1 oral gavage 7 days, 1 h after last dose): 59.83 ± 7.08
Induced asthma latent period (s) within 6 min Before administration [2, 3]: 48.2 ± 4.6 s
Induced asthma latent period (s) within 6 min After administration ([2]; 3 mg·kg^−1 oral gavage 7 days, 1 h after last dose, capped at 360 s): 59.8 ± 7.1 s
